Measured values: article PMC4117758 (2014)

Assays:
Assay in all cases: Job plot, absorption and fluorescence
Details in all cases: 150 mM KCl; 10 mM Tris-HCl pH 7.4, 1 mM Na2EDTA, 400 ml/l PEG 200; 5 μM total
[1] = system: Hum57-M1 (DNA, G4) GGGTTAGGGTTAGGGTTAGGGTTAGGGTTAGGGTTAGGGTTAGGGTGTGAGTGTGAG
[2] = system: Hum45 (DNA, G4) GGGTTAGGGTTAGGGTTAGGGTTAGGGTTAGGGTTAGGGTTAGGG
[3] = system: Hum69 (DNA, G4) GGGTTAGGGTTAGGGTTAGGGTTAGGGTTAGGGTTAGGGTTAGGGTTAGGGTTAGGGTTAGGGTTAGGG
[4] = system: Hum51-M1 (DNA, G4) GGGTTAGGGTTAGGGTTAGGGTTAGGGTTAGGGTTAGGGTTAGGGTGTGAG
[5] = system: Hum51-M2 (DNA, G4) GGGTTAGGGTTAGGGTTAGGGTTGAGTGTAGGGTTAGGGTTAGGGTTAGGG
[6] = system: Hum63 (DNA, G4) GGGTTAGGGTTAGGGTTAGGGTTAGGGTTAGGGTTAGGGTTAGGGTTAGGGTTAGGGTTAGGG
[7] = system: Hum51 (DNA, G4) GGGTTAGGGTTAGGGTTAGGGTTAGGGTTAGGGTTAGGGTTAGGGTTAGGG
[8] = system: Hum21 (DNA, G4) GGGTTAGGGTTAGGGTTAGGG
[9] = system: Hum57-M3 (DNA, G4) GGGTTAGGGTTAGGGTTAGGGTTGAGTGTGAGTGTAGGGTTAGGGTTAGGGTTAGGG
[10] = system: Hum57-M2 (DNA, G4) GGGTTAGGGTTAGGGTTAGGGTTGAGTGTAGGGTTAGGGTTAGGGTTAGGGTGTGAG
[11] = system: Hum57 (DNA, G4) GGGTTAGGGTTAGGGTTAGGGTTAGGGTTAGGGTTAGGGTTAGGGTTAGGGTTAGGG

Measured: binding

C[N+]1(CCOc2ccc(-c3c4nc(c(-c5ccc(OCC[N+]6(C)CCCCC6)cc5)c5ccc([nH]5)c(-c5ccc(OCC[N+]6(C)CCCCC6)cc5)c5nc(c(-c6ccc(OCC[N+]7(C)CCCCC7)cc6)c6ccc3[nH]6)C=C5)C=C4)cc2)CCCCC1
yes: all assays above
